# Data: patent publication US10968215B2 (SHANGHAI HAIHE PHARMACEUTICAL CO., LTD., priority 2016, dated 2021)
# What was measured:
# [1] = molecular target: PRC2 complex (EZH2 Y641F/EED/SUZ12/RbAp48/AEBP2) (Homo sapiens (Human), UniProt Q15910, Y641F); assay: Activity of a compound to PRC2 complex (EZH2 Y641F), HTRF; settings: read-out: IC50 (EZH2_Y641F); EZH2 Y641F PRC2 complex, HTRF; class symbols
# Experimental: Determination of the Activity of a Compound to PRC2 Complex (EZH2Y641F):
# Detection Method: Homogeneous Time-Resolved Fluorescence (HTRF)
# Reaction was conducted in darkness at room temperature for 4 h. […] The IC50 values of the compounds were calculated using SoftMax Pro 5.4.1 software.
# [2] = molecular target: PRC2 complex (EZH2/EED/SUZ12/RbAp48/AEBP2) (Homo sapiens (Human), UniProt Q15910); assay: Activity of a compound to PRC2 complex (EZH2 wild type), ELISA; type: biochemical; settings: class symbols
# PRC2 complex (EZH2/EED/SUZ12/RbAp48/AEBP2), sequence (Q15910 whole entry): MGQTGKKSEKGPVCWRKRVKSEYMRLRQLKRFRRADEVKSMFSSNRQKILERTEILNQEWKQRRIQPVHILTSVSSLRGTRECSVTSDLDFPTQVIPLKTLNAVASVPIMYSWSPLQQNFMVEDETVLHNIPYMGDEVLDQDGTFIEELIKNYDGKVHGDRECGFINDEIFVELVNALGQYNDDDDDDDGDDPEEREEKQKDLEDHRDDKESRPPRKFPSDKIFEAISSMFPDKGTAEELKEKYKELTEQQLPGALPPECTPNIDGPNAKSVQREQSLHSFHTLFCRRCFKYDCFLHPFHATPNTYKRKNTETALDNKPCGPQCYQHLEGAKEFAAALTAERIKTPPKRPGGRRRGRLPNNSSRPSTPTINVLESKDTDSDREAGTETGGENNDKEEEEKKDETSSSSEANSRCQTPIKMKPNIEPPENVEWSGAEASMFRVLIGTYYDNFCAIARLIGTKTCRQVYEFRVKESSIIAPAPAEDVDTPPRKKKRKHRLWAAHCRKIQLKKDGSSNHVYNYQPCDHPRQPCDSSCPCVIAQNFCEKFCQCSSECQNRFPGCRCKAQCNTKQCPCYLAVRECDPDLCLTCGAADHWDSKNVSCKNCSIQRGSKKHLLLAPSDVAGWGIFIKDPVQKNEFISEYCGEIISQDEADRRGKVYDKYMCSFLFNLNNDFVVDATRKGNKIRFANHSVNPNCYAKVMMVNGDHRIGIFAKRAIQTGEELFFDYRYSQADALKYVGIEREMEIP
# PRC2 complex (EZH2/EED/SUZ12/RbAp48/AEBP2), sequence (O75530 whole entry partner): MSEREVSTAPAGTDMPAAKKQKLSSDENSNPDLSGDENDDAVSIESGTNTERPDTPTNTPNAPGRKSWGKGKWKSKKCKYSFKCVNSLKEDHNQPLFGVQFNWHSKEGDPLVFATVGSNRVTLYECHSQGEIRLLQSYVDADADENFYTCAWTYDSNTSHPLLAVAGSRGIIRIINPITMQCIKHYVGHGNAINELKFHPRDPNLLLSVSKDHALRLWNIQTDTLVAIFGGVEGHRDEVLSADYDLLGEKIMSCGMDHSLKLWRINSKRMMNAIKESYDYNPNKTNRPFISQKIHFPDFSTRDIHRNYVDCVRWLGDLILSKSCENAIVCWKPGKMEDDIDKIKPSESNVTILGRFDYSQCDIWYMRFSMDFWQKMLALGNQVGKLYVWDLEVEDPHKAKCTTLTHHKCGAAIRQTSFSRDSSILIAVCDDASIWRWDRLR
# PRC2 complex (EZH2/EED/SUZ12/RbAp48/AEBP2), sequence (Q15022 whole entry partner): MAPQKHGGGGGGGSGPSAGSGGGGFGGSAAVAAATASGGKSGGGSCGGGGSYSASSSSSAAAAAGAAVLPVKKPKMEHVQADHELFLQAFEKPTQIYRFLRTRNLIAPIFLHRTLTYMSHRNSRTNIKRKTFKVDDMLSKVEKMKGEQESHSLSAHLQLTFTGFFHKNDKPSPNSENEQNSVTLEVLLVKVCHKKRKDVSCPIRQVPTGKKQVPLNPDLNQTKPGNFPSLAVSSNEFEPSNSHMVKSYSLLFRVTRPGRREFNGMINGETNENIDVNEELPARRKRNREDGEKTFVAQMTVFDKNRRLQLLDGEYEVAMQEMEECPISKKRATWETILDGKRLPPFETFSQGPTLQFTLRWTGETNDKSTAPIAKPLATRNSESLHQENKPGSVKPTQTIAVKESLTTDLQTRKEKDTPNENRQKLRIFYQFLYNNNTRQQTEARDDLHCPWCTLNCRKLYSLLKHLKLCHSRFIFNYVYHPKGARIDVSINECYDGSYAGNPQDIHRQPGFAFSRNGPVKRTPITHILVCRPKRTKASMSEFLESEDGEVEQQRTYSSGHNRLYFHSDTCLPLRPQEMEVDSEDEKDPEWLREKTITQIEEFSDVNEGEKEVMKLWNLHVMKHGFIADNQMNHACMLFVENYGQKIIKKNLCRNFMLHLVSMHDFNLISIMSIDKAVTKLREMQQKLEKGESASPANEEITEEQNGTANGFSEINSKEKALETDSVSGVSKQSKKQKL
# PRC2 complex (EZH2/EED/SUZ12/RbAp48/AEBP2), sequence (Q09028 whole entry partner): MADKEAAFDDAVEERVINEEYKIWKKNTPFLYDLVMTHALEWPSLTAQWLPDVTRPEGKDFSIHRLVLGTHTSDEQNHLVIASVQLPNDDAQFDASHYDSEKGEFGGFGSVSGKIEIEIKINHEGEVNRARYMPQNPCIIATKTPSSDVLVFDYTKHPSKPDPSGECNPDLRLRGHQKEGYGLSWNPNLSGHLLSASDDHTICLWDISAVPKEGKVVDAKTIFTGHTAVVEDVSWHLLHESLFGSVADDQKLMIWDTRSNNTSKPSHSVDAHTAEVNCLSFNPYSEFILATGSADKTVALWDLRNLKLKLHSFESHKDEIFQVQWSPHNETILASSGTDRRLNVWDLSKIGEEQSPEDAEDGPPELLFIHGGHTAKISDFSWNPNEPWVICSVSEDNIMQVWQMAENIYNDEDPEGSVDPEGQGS
# PRC2 complex (EZH2/EED/SUZ12/RbAp48/AEBP2), sequence (Q6ZN18 whole entry partner): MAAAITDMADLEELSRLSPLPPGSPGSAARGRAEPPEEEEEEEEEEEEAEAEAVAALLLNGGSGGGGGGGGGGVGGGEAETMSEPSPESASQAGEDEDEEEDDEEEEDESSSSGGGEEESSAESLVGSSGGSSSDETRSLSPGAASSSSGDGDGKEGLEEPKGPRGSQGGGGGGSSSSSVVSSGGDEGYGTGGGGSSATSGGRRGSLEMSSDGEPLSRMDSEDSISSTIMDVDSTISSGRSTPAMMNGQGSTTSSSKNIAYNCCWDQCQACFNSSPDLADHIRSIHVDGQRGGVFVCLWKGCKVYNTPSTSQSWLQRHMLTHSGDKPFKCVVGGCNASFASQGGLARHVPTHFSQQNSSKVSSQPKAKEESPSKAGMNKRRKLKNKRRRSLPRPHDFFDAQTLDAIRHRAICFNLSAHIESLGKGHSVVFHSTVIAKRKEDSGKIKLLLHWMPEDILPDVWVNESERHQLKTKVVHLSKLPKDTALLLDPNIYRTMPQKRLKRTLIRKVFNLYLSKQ
# Text: Determination of the Activity of a Compound to PRC2 Complex (EZH2 Wild Type):
# Detection Method: Enzyme-Linked Immunosorbent Assay (ELISA)
# MATERIALS: The PRC2 complex (EZH2/EED/SUZ12/RbAp48/AEBP2) histone methyltransferase was purchased from BPS; the substrate Biotin H3 (21-44) me0 was produced by AnaSpec; SAM was purchased from Sigma, which is GL Biochem product; methyl donor SAM was purchased from Sigma-aldrich; H3K27me3 antibody was purchased from BPS.
# Experimental method: avdin of a final concentration of 100 nM was used to coat 96-well plate at 10 μL/well, placed in a wet box and shaken overnight, and then 100 μL 3% BSA per well was added and blocked for 1 h at room temperature. PRC2 complex (EZH2/EED/SUZ12/RbAp48/AEBP2), H3 (21-44) me0 substrate, methyl donor SAM and compound were added into each well of the blocked 96-well plate. The total reaction system was 100 μL, placed in a wet box and allowed to react for 1 h on shaker at room temperature. The plate was washed with TBS-T [20 mM Tris-HCl (pH 7.2-7.4, room temperature), 150 mM NaCl, 0.1% (v/v) Tween-20] for 3 times, blocked with 3% BSA for 10 min, and anti-H3K27me3 antibody was added and incubated for 1 h in a wet box on shaker at room temperature. The plate was washed again with TBS-T for 3 times, and blocked with 3% BSA per well for 10 min. Horseradish peroxidase-labeled secondary antibody was added and reacted in a wet box at room temperature for 1 h, and finally, washed with TBS-T for 3 times. 2 mg/ml OPD color developing solution (1004/well) was added for coloring, and the reaction was stopped with 2M H2SO4 (50 μL/well). The plate was read by a plate reader at 490 nm and IC50 of the compound was calculated using SoftMax Pro 5.4.1 software.
# PRC2 complex (EZH2 Y641F/EED/SUZ12/RbAp48/AEBP2), sequence (Q15910 whole entry Y641F): as the sequence (Q15910 whole entry) above, with Y641F counted along it
# PRC2 complex (EZH2 Y641F/EED/SUZ12/RbAp48/AEBP2), sequence (O75530 whole entry partner): as the sequence (O75530 whole entry partner) above
# PRC2 complex (EZH2 Y641F/EED/SUZ12/RbAp48/AEBP2), sequence (Q15022 whole entry partner): as the sequence (Q15022 whole entry partner) above
# PRC2 complex (EZH2 Y641F/EED/SUZ12/RbAp48/AEBP2), sequence (Q09028 whole entry partner): as the sequence (Q09028 whole entry partner) above
# PRC2 complex (EZH2 Y641F/EED/SUZ12/RbAp48/AEBP2), sequence (Q6ZN18 whole entry partner): as the sequence (Q6ZN18 whole entry partner) above
structure (smiles),measurement,setting,value
"Cc1cc(C)c(CNC(=O)c2cc3cccn3c(N(C)C3CCOCC3)c2C)c(=O)[nH]1 [Example 55, N-((4,6-dimethyl-2-oxo-1,2-dihydropyridin-3-yl)methyl)-6-methyl-5-(methyl(tetrahydro-2H-pyran-4-yl)amino)indolizine-7-carboxamide]",IC50,[1],100 to 1000 nM
same,IC50,[2],100 to 1000 nM
